Laboratory results published in patent publication US7179825B2, “Retinoic acid mimetic anilides” (Janssen Pharmaceutica N.V., priority 1997, dated 2007).

Tested on: Ovariectomized rats
Assay: Vaginal keratinization test on ovariectomized rats (Example C.2)
Format: in vivo
Details: estradiol undecylate induced keratinization, per os once daily on days 1-3, active dose = 50% of rats show complete suppression
Excerpt: The property to delay the metabolism of retinoic acid can be evidenced in various in vitro and in vivo experiments. A particular in vitro procedure is described in example C.1 and tests the inhibitory activity of the compounds of formula (I) on the metabolism of retinoic acid in human breast cancer cells. The compounds of the present invention were also effective in suppressing induced vaginal keratinization effects in ovariectomized rats as is described in example C.2.
“Vaginal Keratinization Test on Ovariectomized Rats”
Ovariectomized rats were injected subcutaneously with a sesame oil solution containing 100 μg of estradiol undecylate in a volume of 0.1 ml per 100 g body weight and control animals were injected with sesame oil. On day one, two and three, test animals were treated once daily with a per os dose of the test compound and control animals with the drug vehicle (PEG 200). One day after the last treatment, the animals were sacrificed and their vaginas were processed for histological evaluation according to the method described in J. Pharmacol. Exp. Ther. 261(2), 773–779 (1992). A dose at which 50% of the tested rats show complete suppression of the estradiol undecylate induced keratinization effects is defined as an active dose. Table 23 lists the lowest active dose (LAD in mg/kg) of the compounds of formula (I) which were tested.

Row | SMILES | LAD (lowest active dose) [mg/kg]
1 | COc1cc(CC(=O)Nc2ccc(C(C(C)N(C)C)n3ccnc3)cc2)cc(OC)c1OC (single isomer, unassigned) [Compound 302] | >2.50
2 | COc1ccc(CC(=O)Nc2ccc(C(C(C)N(C)C)n3ccnc3)cc2)cc1Cl (single isomer, unassigned) [Compound 304] | >2.50
3 | Cc1cc(CC(=O)Nc2ccc(C(C(C)N(C)C)n3ccnc3)cc2)cc(C)c1C (single isomer, unassigned) [Compound 308] | >2.50
4 | COc1cc(CC(=O)Nc2ccc(C(C(C)N(C)C)n3ccnc3)cc2)ccc1Cl (single isomer, unassigned) [Compound 310] | 2.50
5 | COc1ccc(CC(=O)Nc2ccc(C(C(C)N(C)C)n3ccnc3)cc2)cc1C (single isomer, unassigned) [Compound 312] | >2.50
6 | COc1cc(CC(=O)Nc2ccc(C(C(C)N(C)C)n3ccnc3)cc2)ccc1C (single isomer, unassigned) [Compound 314] | >2.50
7 | COc1cc(CC(=O)Nc2ccc(C(C(C)N(C)C)n3ccnc3)cc2)ccc1C (single isomer, unassigned) [Compound 315] | >2.50
8 | CC(C(c1ccc(NC(=O)Cc2ccc(N(C)C)cc2)cc1)n1ccnc1)N(C)C (single isomer, unassigned) [Compound 317] | >5.00
9 | COc1ccc(CC(=O)Nc2ccc(C(C(C)N(C)C)n3ccnc3)cc2)cc1OC (single isomer, unassigned) [Compound 318] | >2.50
10 | CCCCOc1ccc(CC(=O)Nc2ccc(C(C(C)N(C)C)n3ccnc3)cc2)cc1 (single isomer, unassigned) [Compound 319] | >5.00
11 | CCCCOc1ccc(CC(=O)Nc2ccc(C(C(C)N(C)C)n3ccnc3)cc2)cc1 (single isomer, unassigned) [Compound 320] | 5.00
12 | CC(C(c1ccc(NC(=O)Cc2ccc3c(c2)OCCO3)cc1)n1cncn1)N(C)C (single isomer, unassigned) [Compound 322] | >2.50
13 | COc1ccc(C(=O)Nc2ccc(C(C(C)N(C)C)n3cncn3)cc2)cc1OC (single isomer, unassigned) [Compound 324] | >2.50
14 | CC(C(c1ccc(NC(=O)Cc2ccc3c(c2)OCO3)cc1)n1cncn1)N(C)C (single isomer, unassigned) [Compound 325] | 2.50
15 | COc1ccc(CCCC(=O)Nc2ccc(C(C(C)N(C)C)n3cncn3)cc2)cc1OC (single isomer, unassigned) [Compound 326] | >2.50
16 | COc1ccc(C(=O)Nc2ccc(C(C(C)N(C)C)n3cncn3)cc2)cc1OC (single isomer, unassigned) [Compound 327] | >2.50
17 | COc1ccc(CCC(=O)Nc2ccc(C(C(C)N(C)C)n3cncn3)cc2)cc1OC (single isomer, unassigned) [Compound 328] | >2.50
18 | COc1ccc(CCCC(=O)Nc2ccc(C(C(C)N(C)C)n3cncn3)cc2)cc1OC (single isomer, unassigned) [Compound 329] | >2.50
19 | CC(C(c1ccc(NC(=O)Cc2ccc3c(c2)OCCO3)cc1)n1cncn1)N(C)C (single isomer, unassigned) [Compound 333] | >2.50
20 | CC(C(c1ccc(NC(=O)Cc2ccc3c(c2)OCO3)cc1)n1ccnc1)N(C)C (single isomer, unassigned) [Compound 337] | 2.50
21 | CC(C(c1ccc(NC(=O)Cc2ccc3c(c2)OCCO3)cc1)n1ccnc1)N(C)C (single isomer, unassigned) [Compound 338] | >2.50
22 | CC(C(c1ccc(NC(=O)Cc2ccc3c(c2)OCO3)cc1)n1ccnc1)N(C)C (single isomer, unassigned) [Compound 340] | 2.50
23 | COc1ccc(C(=O)Nc2ccc(C(C(C)N(C)C)n3ccnc3)cc2)cc1OC (single isomer, unassigned) [Compound 341] | >2.50
24 | COc1ccc(C(=O)Nc2ccc(C(C(C)N(C)C)n3ccnc3)cc2)cc1OC (single isomer, unassigned) [Compound 342] | >2.50

Row | SMILES | LAD (lowest active dose) [mg/kg]
25 | CC(C(c1ccc(NC(=O)Oc2ccccc2)cc1)n1ccnc1)N(C)C (single isomer, unassigned) [Compound 343] | >2.50
26 | CC(C(c1ccc(NC(=O)N2CCN(C)CC2)cc1)n1ccnc1)N(C)C (single isomer, unassigned) [Compound 347] | >5.00
27 | CC(C(c1ccc(NC(=O)N2CCN(C)CC2)cc1)n1ccnc1)N(C)C (single isomer, unassigned) [Compound 349] | >2.50
28 | COc1ccccc1OCC(=O)Nc1ccc(C(C(C)N(C)C)n2ccnc2)cc1 (single isomer, unassigned) [Compound 350] | >2.50
29 | CCCC(C)C(c1ccc(NC(=O)Cc2ccc(Cl)cc2)cc1)n1ccnc1 (single isomer, unassigned) [Compound 374] | 2.50
30 | COc1ccc(CC(=O)Nc2ccc(C(C(C)N(C)C)n3ccnc3)cc2)cc1OC (single isomer, unassigned) [Compound 379] | >2.50
31 | CCOC(=O)C(C)C(c1ccc(NC(=O)Cc2ccc(OC)c(OC)c2)cc1)n1ccnc1 (single isomer, unassigned) [Compound 381] | >2.50
32 | CCCCCC(C)C(c1ccc(NC(=O)Cc2ccc(OC)c(OC)c2)cc1)n1ccnc1 (single isomer, unassigned) [Compound 384] | >2.50
33 | CCN(CC)C(C)C(c1ccc(NC(=O)Cc2ccc(OC)c(OC)c2)cc1)n1ccnc1 (single isomer, unassigned) [Compound 387] | >2.50
34 | COc1ccc(CC(=O)Nc2ccc(C(C(C)CN3CCCCC3)n3ccnc3)cc2)cc1OC (single isomer, unassigned) [Compound 390] | >2.50
35 | COc1ccc(CC(=O)Nc2ccc(C(C(C)CN(C)C)n3ccnc3)cc2)cc1OC (single isomer, unassigned) [Compound 391] | >5.00
36 | COc1ccc(CC(=O)Nc2ccc(C(C(C)CN(C)C)n3ccnc3)cc2)cc1OC (single isomer, unassigned) [Compound 392] | >5.00
37 | COc1ccc(CC(=O)Nc2ccc(C(C(C)N(C)Cc3ccccc3)n3ccnc3)cc2)cc1OC (single isomer, unassigned) [Compound 396] | >2.50
38 | COc1ccc(CC(=O)Nc2ccc(C(C(C)N(C)Cc3ccccc3)n3ccnc3)cc2)cc1OC (single isomer, unassigned) [Compound 398] | >5.00
39 | CNC(C)C(c1ccc(NC(=O)Cc2ccc(OC)c(OC)c2)cc1)n1ccnc1.O (single isomer, unassigned) [Compound 401] | >2.50
40 | CCCCN(C)C(C)C(c1ccc(NC(=O)Cc2ccc(OC)c(OC)c2)cc1)n1ccnc1 (single isomer, unassigned) [Compound 406] | >5.00
41 | COc1ccc(CC(=O)Nc2ccc(C(C(C)N(C)CCN(C)C)n3ccnc3)cc2)cc1OC (single isomer, unassigned) [Compound 407] | >5.00
42 | COc1ccc(CC(=O)Nc2ccc(C(C(C)N3CCOCC3)n3ccnc3)cc2)cc1OC (single isomer, unassigned) [Compound 408] | >5.00
43 | COc1ccc(CC(=O)Nc2ccc(C(C(C)N3CCOCC3)n3ccnc3)cc2)cc1OC (single isomer, unassigned) [Compound 409] | 5.00
44 | COc1ccc(CC(=O)Nc2ccc(C(C3CCCN(C)C3)n3ccnc3)cc2)cc1OC (single isomer, unassigned) [Compound 410] | >5.00
45 | COc1ccc(CC(=O)Nc2ccc(C(C3CCCCN3C)n3ccnc3)cc2)cc1OC (single isomer, unassigned) [Compound 411] | 2.50
46 | CCCN(C)C(C)C(c1ccc(NC(=O)Cc2ccc(OC)c(OC)c2)cc1)n1ccnc1 (single isomer, unassigned) [Compound 414] | 5.00
47 | COc1ccc(CC(=O)Nc2ccc(C(C(C)OC(=O)N(Cc3ccccc3)Cc3ccccc3)n3ccnc3)cc2)cc1OC (single isomer, unassigned) [Compound 417] | >5.00
48 | COc1ccc(CC(=O)Nc2ccc(C(C(C)N(Cc3ccccc3)Cc3ccccc3)n3ccnc3)cc2)cc1OC (single isomer, unassigned) [Compound 419] | >5.00
